According to the NIST ThermoML archive (doi:10.1016/j.tca.2006.05.010):

Assays:
[1] = excess molar enthalpy (molar enthalpy of mixing); xn = mol fraction of the nth substance listed; conditions: 308.15 K, 101 kPa, Liquid, Flow calorimetry
[2] = molar heat capacity at constant pressure; xn = mol fraction of the nth substance listed; conditions: 308.15 K, 101 kPa, Liquid, Small sample (50 mg) DSC
[3] = refractive index (Na D-line) (dimensionless); conditions: 101.33 kPa, Liquid, Standard Abbe refractometry
[4] = molar heat capacity at constant pressure; conditions: 101.33 kPa, Liquid, Small sample (50 mg) DSC
[5] = 101.33 kPa, Liquid, Vibrating tube method

C1COCCO1 [1,4-dioxane] + C[S+](C)[O-]
Conditions	excess molar enthalpy [kcal/mol]	molar heat capacity at constant pressure [J/K/mol]
[1], x2 = 0.0478	0.0318	–
[1], x2 = 0.0911	0.0531	–
[1], x2 = 0.1308	0.0672	–
[1], x2 = 0.1671	0.0765	–
[1], x2 = 0.2313	0.0872	–
[1], x2 = 0.2863	0.0923	–
[1], x2 = 0.3757	0.0978	–
[1], x2 = 0.4451	0.0997	–
[1], x2 = 0.5462	0.0966	–
[1], x2 = 0.6437	0.0915	–
[1], x2 = 0.7066	0.0851	–
[1], x2 = 0.7831	0.0741	–
[1], x2 = 0.828	0.065	–
[1], x2 = 0.8784	0.0495	–
[1], x2 = 0.9059	0.0399	–
[1], x2 = 0.9353	0.0277	–
[1], x2 = 0.9665	0.0158	–
[2], x2 = 0.0749	–	154.8
[2], x2 = 0.1148	–	155.1
[2], x2 = 0.2112	–	155.5
[2], x2 = 0.313	–	155.4
[2], x2 = 0.4096	–	155.1
[2], x2 = 0.5185	–	154.6
[2], x2 = 0.6108	–	153.9
[2], x2 = 0.6637	–	153.5
[2], x2 = 0.7064	–	153.2
[2], x2 = 0.8128	–	152.5
[2], x2 = 0.8952	–	152.7
[2], x2 = 0.9586	–	153.5

C[S+](C)[O-] [dimethyl sulfoxide]
Conditions	mass density [kg/m3]	molar heat capacity at constant pressure [J/K/mol]	refractive index
[3], 298.15 K	–	–	1.4775
[3], 308.15 K	–	–	1.4729
[4], 293.15 K	–	151.2	–
[4], 298.15 K	–	152.4	–
[4], 303.15 K	–	153.4	–
[4], 308.15 K	–	154.8	–
[4], 313.15 K	–	155.4	–
[4], 318.15 K	–	156.6	–
[4], 323.15 K	–	157.7	–
[4], 328.15 K	–	157.8	–
[4], 333.15 K	–	158.5	–
[4], 338.15 K	–	159.3	–
[4], 343.15 K	–	159.5	–
[4], 348.15 K	–	160.2	–
[4], 353.15 K	–	160.3	–
[4], 358.15 K	–	161.3	–
[4], 363.15 K	–	161.5	–
[4], 368.15 K	–	161.7	–
[4], 373.15 K	–	162.6	–
[4], 378.15 K	–	163.3	–
[4], 383.15 K	–	164.8	–
[4], 388.15 K	–	166.3	–
[4], 393.15 K	–	168.3	–
[4], 398.15 K	–	169.1	–
[4], 403.15 K	–	170.3	–
[4], 408.15 K	–	170.4	–
[4], 413.15 K	–	170.6	–
[4], 418.15 K	–	171.1	–
[4], 423.15 K	–	171.2	–
[5], 298.15 K	1095.58	–	–
[5], 308.15 K	1085.5	–	–

C1CCOC1 [tetrahydrofuran]
Conditions	mass density, [5] [kg/m3]	molar heat capacity at constant pressure, [4] [J/K/mol]	refractive index, [3]
288.15 K	–	121.1	–
293.15 K	–	123.8	–
298.15 K	881.9	126.4	1.4048
303.15 K	–	128.5	–
308.15 K	870.99	131.4	1.4002
313.15 K	–	133.2	–
318.15 K	–	135.2	–
323.15 K	–	136.6	–

C1CCOC1 [tetrahydrofuran] + C[S+](C)[O-]
Conditions	excess molar enthalpy [kcal/mol]	molar heat capacity at constant pressure [J/K/mol]
[1], x2 = 0.0457	0.0509	–
[1], x2 = 0.0875	0.0889	–
[1], x2 = 0.1257	0.117	–
[1], x2 = 0.1608	0.138	–
[1], x2 = 0.2233	0.167	–
[1], x2 = 0.2771	0.183	–
[1], x2 = 0.3651	0.204	–
[1], x2 = 0.4339	0.208	–
[1], x2 = 0.5349	0.209	–
[1], x2 = 0.6332	0.201	–
[1], x2 = 0.697	0.185	–
[1], x2 = 0.7753	0.163	–
[1], x2 = 0.8215	0.141	–
[1], x2 = 0.8735	0.113	–
[1], x2 = 0.902	0.0956	–
[1], x2 = 0.9325	0.0696	–
[1], x2 = 0.965	0.039	–
[2], x2 = 0.0807	–	132.9
[2], x2 = 0.1171	–	133.6
[2], x2 = 0.2353	–	135.9
[2], x2 = 0.3233	–	137.7
[2], x2 = 0.4932	–	141.4
[2], x2 = 0.5284	–	142.3
[2], x2 = 0.5833	–	143.6
[2], x2 = 0.6359	–	144.9
[2], x2 = 0.7298	–	147.2
[2], x2 = 0.8269	–	149.8
[2], x2 = 0.893	–	151.6
[2], x2 = 0.9507	–	153.2

C1CCOCC1 [tetrahydropyran]
Conditions	mass density [kg/m3]	molar heat capacity at constant pressure [J/K/mol]	refractive index
[3], 298.15 K	–	–	1.4188
[3], 308.15 K	–	–	1.4142
[4], 288.15 K	–	143.9	–
[4], 293.15 K	–	146.3	–
[4], 298.15 K	–	147.9	–
[4], 303.15 K	–	149.7	–
[4], 308.15 K	–	151.7	–
[4], 313.15 K	–	154.3	–
[4], 318.15 K	–	156.5	–
[4], 323.15 K	–	159.1	–
[4], 328.15 K	–	161.6	–
[4], 333.15 K	–	164.2	–
[5], 298.15 K	879.31	–	–
[5], 308.15 K	868.85	–	–

C1CCOCC1 [tetrahydropyran] + C[S+](C)[O-]
Conditions	excess molar enthalpy [kcal/mol]	molar heat capacity at constant pressure [J/K/mol]
[1], x2 = 0.0543	0.0899	–
[1], x2 = 0.1148	0.16	–
[1], x2 = 0.1469	0.187	–
[1], x2 = 0.1867	0.214	–
[1], x2 = 0.2562	0.243	–
[1], x2 = 0.3146	0.261	–
[1], x2 = 0.4079	0.273	–
[1], x2 = 0.4786	0.278	–
[1], x2 = 0.5708	0.27	–
[1], x2 = 0.6739	0.247	–
[1], x2 = 0.7337	0.226	–
[1], x2 = 0.8051	0.19	–
[1], x2 = 0.8464	0.164	–
[1], x2 = 0.8921	0.121	–
[1], x2 = 0.9168	0.0985	–
[1], x2 = 0.9429	0.0705	–
[1], x2 = 0.9706	0.0375	–
[2], x2 = 0.0834	–	152.1
[2], x2 = 0.1416	–	152.4
[2], x2 = 0.2619	–	152.8
[2], x2 = 0.376	–	153.1
[2], x2 = 0.4572	–	153.5
[2], x2 = 0.5817	–	153.7
[2], x2 = 0.6249	–	153.8
[2], x2 = 0.659	–	153.8
[2], x2 = 0.7619	–	153.9
[2], x2 = 0.8405	–	154
[2], x2 = 0.9268	–	154.2
[2], x2 = 0.952	–	154.3
